In assay [1] the test system is FC (3T3 clumps). Put plainly: Nuclear dynamics by time-lapse confocal microscopy of Hoechst 33342 stained nuclei. Format: cell-based, mouse. To be noted: TSA-treated FC compared to control FC. As for the experimental part: Nuclear dynamics were analyzed from the decorrelation of the nuclear images in time as described previously(37). Time-lapse live-imaging of nucleus stained with Hoechst 33342 (ThermoFisher Scientific) was done in confocal mode with time intervals of one minute for up to 32 minutes in PR, FC and FC+TSA conditions. One Pearson correlation coefficient (PCC) value was calculated from two lists of pixel intensity of the same nucleus captured in different time points with a certain time lag. For each cell, one PCC curve was drawn which connecting all PCCs (as y) with the increasing time lags (as x) as represented in dim color in FIG. 5A. The mean PCC curves for all cells in each condition, were drawn in bright color in FIG. 5A. The mean PCC curves in each condition were fitted by equation y=(1−α)+α exp(−t/τ)−η, where y refers to PCC value, t is time lags, fitting parameter α is drop rate, τ is time constant, η is noise.

For assay [2], the system named is FC (3T3 clumps). As to the kind of experiment: H3K9ac immunofluorescence. Format: cell-based, mouse. The settings on record: TSA-treated FC compared to untreated FC. As for the experimental part:
(§1) Cells embedded in Collagen-I gel were fixed with 4% Paraformaldehyde (Sigma) in PBS buffer (pH 7.4) for 25 min, followed by washing with PBS+100 mM glycine buffer (5 min×3). Cells were permeabilized using 0.5% Triton (Sigma-Aldrich) in PBS for 20 min, followed by washing with PBS-glycine buffer (5 min×3). After that, cells were blocked with 10% goat serum (ThermoFisher Scientific) in IF wash buffer (PBS+0.2% Triton+0.2% tween 20) for 3 h at room temperature. Next, cells were incubated overnight with different primary antibodies diluted in blocking buffer, followed by washing with IF wash buffer (15 min×3). […] Cell nuclei were stained with NucBlue Live Ready Probes (Molecular Probes; Thermo Fisher Scientific) in PBS for 10 min at room temperature, and filamentous actin was labeled using phalloidin Alexa Fluor 488 or 568 (1:100; Molecular Probes; Thermo Fisher Scientific) for 45 min.
(§2) Fluorescent images of 3D spheroids and cells embedded in 3D Collagen-I gel were acquired by using Nikon AIR laser scanning confocal microscope (Nikon Instruments Inc, Japan), at either 20× magnification (Plan Apo 20× ELWD, NA 0.8) or 63× magnification (1.25 NA oil objective) with identical acquisition settings. […] The sprouting length of each spheroid embedded in 3D collagen matrix was measured from the large field fluorescent micrograph of actin using AngioTools software.

For assay [3], the system named is FC embedded in 3D collagen matrix (FCG). As to the kind of experiment: pMLC immunofluorescence of sprouted cells in 3D collagen matrix. Type of assay: cell-based, mouse. As for the experimental part: as §1, §2
Assay [4] concerns RF embedded in fibrillary collagen matrix. Put plainly: Collagen fibre remodeling/stiffening by matrix-embedded fibroblasts (immunostained collagen). Type of assay: cell-based, mouse. The settings on record: for collagen fiber stiffening: addition to spheroids sprouting in collagen matrix. From the text: In order to characterize these RF in vitro, one compared the gel contraction abilities of cells derived from PR spheroids or from FC, both of which were equally embedded in the 3D collagen matrix. […] Fibroblasts are known to exert mechanical forces on the extracellular matrix surrounding them. […] Both RF and FCG embedded in fibrillary collagen matrix were able to remodel collagen fibrils into thicker bundles (FIG. 3F).
Cells embedded in Collagen-I gel were fixed with 4% Paraformaldehyde (Sigma) in PBS buffer (pH 7.4) for 25 min, followed by washing with PBS+100 mM glycine buffer (5 min×3). Cells were permeabilized using 0.5% Triton (Sigma-Aldrich) in PBS for 20 min, followed by washing with PBS-glycine buffer (5 min×3). After that, cells were blocked with 10% goat serum (ThermoFisher Scientific) in IF wash buffer (PBS+0.2% Triton+0.2% tween 20) for 3 h at room temperature. Next, cells were incubated overnight with different primary antibodies diluted in blocking buffer, followed by washing with IF wash buffer (15 min×3). Cells were then incubated with corresponding fluorescent-labeled secondary antibodies diluted in 5% goat serum in IF wash buffer for 3 h at room temperature. Cell nuclei were stained with NucBlue Live Ready Probes (Molecular Probes; Thermo Fisher Scientific) in PBS for 10 min at room temperature, and filamentous actin was labeled using phalloidin Alexa Fluor 488 or 568 (1:100; Molecular Probes; Thermo Fisher Scientific) for 45 min.
Fluorescent images of 3D spheroids and cells embedded in 3D Collagen-I gel were acquired by using Nikon AIR laser scanning confocal microscope (Nikon Instruments Inc, Japan), at either 20× magnification (Plan Apo 20× ELWD, NA 0.8) or 63× magnification (1.25 NA oil objective) with identical acquisition settings. In the Z dimension, each spheroid and 3D Collagen-I gel was scanned up to a depth of 50 μm, with a step size of 1 to 5 μm. Confocal images of either 512×512 or 1024×1024 pixels were obtained with an XY optical resolution of 0.42 μm or 0.21 μm, respectively. Time lapse imaging was done in confocal mode for up to 60 min and 18 h with 60 s and 30 m time intervals, respectively. Bright-field images were acquired using the EVOS FL Cell Imaging System (Thermo Fisher Scientific). For gel contraction assay, images of collagen gel at different days of cell growth were acquired with a mobile camera at a fixed magnification. The fluorescence intensity was measured for each protein in its respective channel and the number of gH2Ax foci per nucleus was determined using custom-written code in Fiji (NI) MATLAB (Mathworks) and IMARIS8. The sprouting length of each spheroid embedded in 3D collagen matrix was measured from the large field fluorescent micrograph of actin using AngioTools software.

In assay [5] the test system is 6 day-old spheroids of NIH3T3 mouse embryonic fibroblasts. Put plainly: Cell sprouting from partially reprogrammed spheroids in 3D collagen matrix (AngioTools). Type of assay: cell-based. The settings on record: addition to spheroids sprouting in collagen matrix.
Source text: These 6 day-old spheroids were embedded in collagen gels and cultured for at least 2 days (FIG. 1A). Within few hours, cells originating from the spheroids progressively invaded the collagen matrix and migrated either individually as unicellular sprouts (single cells) or collectively as complex capillary-like structures (FIG. 1B). In addition to cell invasion, morphological modifications in the spheroid core itself were detected. While the spheroids initially appeared as a compact structure, subsequent cell migration induced spheroid expansion occurred and led to breaches in the spheroid core. […]
as §2, with “The fluorescence intensity was measured for each protein in its respective channel and the number of gH2Ax foci per nucleus was determined using custom-written code in Fiji (NI) MATLAB (Mathworks) and IMARIS8. The” for “The”

Consider `CC(/C=C/C(=O)NO)=C\[C@@H](C)C(=O)c1ccc(N(C)C)cc1` [TSA, Trichostatin A], for which, in assay [1], the nuclear dynamics result is recorded as “increase in nuclear dynamics”. Also, the H3K9ac levels entry in assay [2] is “significant increase”. The “level of pMLC” value in assay [3] (TSA-treated FCG compared to untreated FCG and RF) was “higher level”. Also, the “contractility upon exposure to ECM-related cues” value in assay [3] (fibroblasts treated with the HDAC inhibitor) is “increased contractility”.

As for `C[C@@H](N)[C@H]1CC[C@H](C(=O)Nc2ccncc2)CC1` [Y-27632], the “remodeling of collagen fibrils around RF” value in assay [4] (25 μM) is “very less or no remodeling”.

Consider `Cc1ccc2c(c1)C(=O)C1(O)CCN(c3ccccc3)C1=N2` (stereo not shown) [blebbistatin], for which the average sprouting length result in assay [5] was “significant reduction”. Besides, the collagen fiber stiffening entry in assay [4] was “drop”.

On to `C=C1[C@@H](C)[C@H]2[C@H](Cc3ccccc3)NC(=O)[C@]23[C@H](OC(C)=O)/C=C/[C@@](C)(O)C(=O)[C@@H](C)C/C=C/[C@H]3[C@@H]1O` [cytoD, cytochalasin D], for which the average sprouting length entry in assay [5] is “significant reduction”. In addition, the “remodeling of collagen fibrils around RF” value in assay [4] (4 μM) was “very less or no remodeling”. For the same compound, in assay [4], the collagen fiber stiffening entry was “drop”.

The record behind these values is patent US20230235289A1, “METHOD FOR FIBROBLAST REJUVENATION BY MECHANICAL REPROGRAMMING AND REDIFFERENTIATION” (Paul Scherrer Institut, priority 2020, published 2023).
